This note sets out measurements from patent US10858366B2 (priority 2016, dated 2020).

The structures appear in SMILES notation.

In assay [1] the target is truncated Influenza A/victoria/75 PA(1-209) (Influenza A virus (strain A/Victoria/3/1975 H3N2), UniProt P31343). Briefly: Endonuclease Inhibition Assay (PA FP Assay). It counts as binding. As to conditions: fluorescence polarization, fluorescein-labeled probe. As to the method:
Endonuclease Inhibition Assay (PA FP Assay)
Compounds were dissolved and serially diluted in 100% DMSO then 0.5 μl was transferred to 384-well plates. 50 nM truncated Influenza A/victoria/75 PA(1-209) was prepared in assay buffer (20 mM Tris, pH=7.5, 10 mM MgCl2, 0.01% Tween 20, 100 mM NaCl and 1 mM DTT) and 20 ul was added to each well of assay plate with compounds, centrifuged for 1 min at 1000 rpm and incubated for 30 min at room temperature. 20 μl of 20 nM fluorescein-labeled probe [5-(4-(3-carboxy-3-oxopropanoyl)-4-(4-chlorobenzyl)piperidine-1-carbonyl)-2-(6-hydroxy-3-oxo-3H-xanthen-9-yl)benzoic acid] in assay buffer was then added, centrifuged for 1 min at 1000 rpm and incubated for 60 min at room temperature.
Fluorescence polarization was measured on Perkin Elmer Envision plate reader with excitation at 480 nm and emission at 535 nm and reported in millipolarization units (mP). IC50 values were determined relative to wells containing 125 uM of a compound known to bind to the active site of PA and uninhibited wells containing 1.25% DMSO.
(In fluorescence polarisation assays a small probe gives low polarisation when free and higher when bound to something large.)

Assay [2] addresses RNP_CAL (PB2, PB1, PA, NP, influenza A Luciferase reporter in 293T cells) (Influenza A virus (strain swl A/California/04/2009 H1N1), UniProt C3W5S0). In words: cell-based.

The IC50 is the concentration that inhibits the measured activity by half. Read a low IC50 as higher potency. Usually EC50 stands for the concentration that produces a half-maximal response. A lower EC50 goes with greater potency. Regarding `O=c1ccn2c(c1O)-c1ncc(Br)n1C[C@@H]2C(c1ccccc1)c1ccccc1` [Example 7, (S)-6-benzhydryl-3-bromo-11-hydroxy-5H-imidazo[1,2-a]pyrido[2,1-c]pyrazin-10(6H)-one], the midpoint of inhibition in assay [1], the IC50, lay at 9 nM. The compound also registered an EC50 in assay [2] of 170 nM.

Take `O=c1ccn2c(c1O)-c1ncc(C3CC3)n1C[C@@H]2C(c1ccccc1)c1ccccc1` [Example 8, (S)-6-benzhydryl-3-cyclopropyl-11-hydroxy-5H-imidazo[1,2-a]pyrido[2,1-c]pyrazin-10(6H)-one]: in assay [1], the IC50 was 40 nM. Moreover, the EC50 in assay [2] worked out at 150 nM.

The compound `Cc1nc2n(c1C)C[C@H](C(c1ccccc1)c1ccccc1)n1ccc(=O)c(O)c1-2` [Example 14, (S)-6-benzhydryl-11-hydroxy-2,3-dimethyl-5H-imidazo[1,2-a]pyrido[2,1-c]pyrazin-10(6H)-one] returned a 50% inhibitory concentration (IC50) in assay [1] of 100 nM. Further, the concentration for a half-maximal effect (EC50) in assay [2] was determined as 4200 nM.

`O=c1cnn2c(c1O)-c1nccn1C[C@@H]2[C@H](c1ccccc1)c1ccc(F)cc1` [Example 17, (S)-6-((R)-(4-fluorophenyl)(phenyl)methyl)-11-hydroxy-5,6-dihydro-10H-imidazo[2′,1′:3,4]pyrazino[1,2-b]pyridazin-10-one] yielded a concentration for half-maximal inhibition (IC50) in assay [1] of 20 nM. In assay [2], this compound had an EC50 of 10 nM.

As to `O=c1cnn2c(c1O)-c1nccn1C[C@@H]2[C@@H](c1ccccc1)c1ccc(F)cc1` [Example 18, (S)-6-((S)-(4-fluorophenyl)(phenyl)methyl)-11-hydroxy-5,6-dihydro-10H-imidazo[2′,1′:3,4]pyrazino[1,2-b]pyridazin-10-one], inhibition in assay [1] was half-maximal at 20 nM (IC50). This compound also showed an EC50 in assay [2] of 130 nM.

For `O=c1cnn2c(c1O)-c1nccn1C[C@@H]2[C@H](c1ccc(F)cc1)c1cncc(F)c1` [Example 19, (S)-6-((R)-(4-fluorophenyl)(5-fluoropyridin-3-yl)methyl)-11-hydroxy-5,6-dihydro-10H-imidazo[2′,1′:3,4]pyrazino[1,2-b]pyridazin-10-one], 40 nM corresponded to half-maximal inhibition in assay [1] (IC50). In assay [2], this compound had a half-maximal effective concentration (EC50) of 260 nM.

Regarding `O=c1cnn2c(c1O)-c1nccn1C[C@@H]2[C@H](c1ccc(F)cc1)c1ccc(C(F)(F)F)nc1` [Example 20, (S)-6-((R)-(4-fluorophenyl)(6-(trifluoromethyl)pyridin-3-yl)methyl)-11-hydroxy-5,6-dihydro-10H-imidazo[2′,1′:3,4]pyrazino[1,2-b]pyridazin-10-one], inhibition in assay [1] was half-maximal at 300 nM (IC50). Also, the EC50 in assay [2] amounted to 720 nM.

Compound `O=c1cnn2c(c1O)-c1nccn1C[C@@H]2C(c1cccc(F)c1)c1cccc(F)c1` [Example 23, (S)-6-(bis(3-fluorophenyl)methyl)-11-hydroxy-5,6-dihydro-10H-imidazo[2′,1′:3,4]pyrazino[1,2-b]pyridazin-10-one] showed an IC50 in assay [1] of 50 nM. In assay [2], the EC50 amounted to 39 nM.

Compound `O=c1cnn2c(c1O)-c1nccn1C[C@@H]2[C@@H](c1ccc(F)cc1)c1cccc(F)c1` [Example 24, (S)-6-((S)-(3-fluorophenyl)(4-fluorophenyl)methyl)-11-hydroxy-5,6-dihydro-10H-imidazo[2′,1′:3,4]pyrazino[1,2-b]pyridazin-10-one] came in with a half-inhibitory concentration (IC50) in assay [1] of 9 nM. It took 36 nM to reach a half-maximal effect in assay [2] (EC50).

`O=c1cnn2c(c1O)-c1nccn1C[C@@H]2[C@@H](c1ccc(F)cc1)c1ccc(Cl)cc1` [Example 33, (S)-6-((S)-(4-chlorophenyl)(4-fluorophenyl)methyl)-11-hydroxy-5,6-dihydro-10H-imidazo[2′,1′:3,4]pyrazino[1,2-b]pyridazin-10-one] gave an IC50 in assay [1] of 20 nM. Further, the EC50 in assay [2] worked out at 110 nM.

On to `Cc1cccc([C@H](c2ccc(F)cc2)[C@H]2Cn3ccnc3-c3c(O)c(=O)cnn32)c1` [Example 38, (S)-6-((S)-(4-fluorophenyl)(m-tolyl)methyl)-11-hydroxy-5,6-dihydro-10H-imidazo[2′,1′:3,4]pyrazino[1,2-b]pyridazin-10-one], for which the IC50 in assay [1] came out at 40 nM. Besides, a half-maximal response in assay [2] (EC50) required 49 nM.

Turning to `O=c1cnn2c(c1O)-c1nccn1C[C@@H]2[C@H](c1ccc(F)cc1)c1ccc(F)cc1Br` [Example 39, (S)-6-((R)-(2-bromo-4-fluorophenyl)(4-fluorophenyl)methyl)-11-hydroxy-5,6-dihydro-10H-imidazo[2′,1′:3,4]pyrazino[1,2-b]pyridazin-10-one], 10 nM corresponded to half-maximal inhibition in assay [1] (IC50). The same compound showed an EC50 in assay [2] of 33 nM.

`Cc1ccccc1[C@H](c1ccc(F)cc1)[C@H]1Cn2ccnc2-c2c(O)c(=O)cnn21` [Example 40, (S)-6-((S)-(4-fluorophenyl)(o-tolyl)methyl)-11-hydroxy-5,6-dihydro-10H-imidazo[2′,1′:3,4]pyrazino[1,2-b]pyridazin-10-one] registered a half-maximal inhibitory concentration (IC50) in assay [1] of 20 nM. The EC50 in assay [2] turned out to be 32 nM.

Turning to `N#Cc1cccc([C@H](c2ccc(F)cc2)[C@H]2Cn3ccnc3-c3c(O)c(=O)cnn32)c1` [Example 43, 3-((S)-(4-fluorophenyl)((S)-11-hydroxy-10-oxo-5,6-dihydro-10H-imidazo[2′,1′:3,4]pyrazino[1,2-b]pyridazin-6-yl)methyl)benzonitrile], the 50% inhibitory concentration (IC50) in assay [1] came out at 20 nM. Moreover, in assay [2], the concentration giving a half-maximal response (EC50) is 39 nM.

In assay [1], `N#Cc1cccc([C@H](c2cccc(F)c2)[C@H]2Cn3ccnc3-c3c(O)c(=O)cnn32)c1` [Example 46, 3-((R)-(3-fluorophenyl)((S)-11-hydroxy-10-oxo-5,6-dihydro-10H-imidazo[2′,1′:3,4]pyrazino[1,2-b]pyridazin-6-yl)methyl)benzonitrile] came in with a half-inhibitory concentration (IC50) of 50 nM. The compound also came in with a 50% effective concentration (EC50) in assay [2] of 64 nM.

In assay [1], `O=c1ccn2c(c1O)-c1ncc(-c3cn[nH]c3)n1C[C@@H]2C(c1ccccc1)c1ccccc1` [Example 52, (S)-6-benzhydryl-11-hydroxy-3-(1H-pyrazol-4-yl)-5,6-dihydro-10H-imidazo[1,2-a]pyrido[2,1-c]pyrazin-10-one] returned a half-maximal inhibitory concentration (IC50) of 8 nM. For the same compound, the EC50 in assay [2] was 8300 nM.

In assay [1], `O=c1ccn2c(c1O)-c1ncc(-c3ccccc3)n1C[C@@H]2C(c1ccccc1)c1ccccc1` [Example 53, (S)-6-benzhydryl-11-hydroxy-3-phenyl-5H-imidazo [1,2-a] pyrido[2,1-c]pyrazin-10(6H)-one] showed a concentration for half-maximal inhibition (IC50) of 60 nM. This compound also registered a half-maximal effective concentration (EC50) in assay [2] of 3000 nM.

Compound `COCc1cnc2n1C[C@H](C(c1ccccc1)c1ccccc1)n1ccc(=O)c(O)c1-2` [Example 56, (S)-6-benzhydryl-11-hydroxy-3-(methoxymethyl)-5H-imidazo [1,2-a]pyrido[2,1-c]pyrazin-10(6H)-one] displayed an IC50 in assay [1] of 100 nM. In assay [2], a half-maximal response (EC50) required 92 nM.

As for `O=c1ccn2c(c1O)-c1ncc(C(F)F)n1C[C@@H]2C(c1ccccc1)c1ccccc1` [Example 57, (S)-6-benzhydryl-3-(difluoromethyl)-11-hydroxy-5H-imidazo[1,2-a]pyrido[2,1-c]pyrazin-10(6H)-one], in assay [1], the midpoint of inhibition, the IC50, lay at 40 nM. For the same compound, the midpoint of the response in assay [2], the EC50, lay at 180 nM.

In assay [1], `CC1(C)N(C(c2ccccc2)c2ccccc2)n2ccc(=O)c(O)c2-c2nccn21` [Example 75, 6-benzhydryl-11-hydroxy-5,5-dimethyl-5,6-dihydro-10H-imidazo[1,2-d]pyrido[2,1-f][1,2,4]triazin-10-one] displayed a 50% inhibitory concentration (IC50) of 100 nM. Moreover, a half-maximal response in assay [2] (EC50) required 300 nM.

`CCC1N(C(c2ccccc2)c2ccccc2)n2ccc(=O)c(O)c2-c2nccn21` (stereo not drawn) [Example 78, 6-benzhydryl-5-ethyl-11-hydroxy-5,6-dihydro-10H-imidazo[1,2-d]pyrido[2,1-f][1,2,4]triazin-10-one] had an IC50 in assay [1] of 40 nM. This compound also displayed an EC50 in assay [2] of 180 nM.
